# Measured values reported in PMC7037732, “Synthesis of Combretastatin A-4 and 3′-Aminocombretastatin A-4 derivatives with Aminoacid Containing Pendants and Study of their Interaction with Tubulin and as Downregulators of the VEGF, hTERT and c-Myc Gene Expression” (Molecules, 2020).
# Assays:
# [1] = test system: HT-29 (human colon adenocarcinoma); assay: Inhibition of cell proliferation (MTT), HT-29; format: cell-based; conditions: Homo sapiens, 48 h of treatment (footnote), average ±SD of three experiments
# [2] = test system: A-549 cells; assay: Effect on the cellular microtubule network (immunofluorescence); format: cell-based, human
# Protocol: The effect on the cellular microtubule network of CA-4 derivatives was studied for compounds 1, 3.7 (L-Thr-OMe), 3.8 (L-Tyr-OMe), 4.2 (L-Val) and 4.3 (L-Leu), which were those accumulating more cells in the G2/M phase. Thus, A-549 cells were incubated for 24 h in the presence of the above compounds and CA-4 at the concentrations indicated in Figure 4.
# The effect of some derivatives on the cellular microtubule network were also studied on A-549 cells. The selected compounds were 7.1 (Fmoc-Gly) (0.5 μM), 8.1 (Gly) (2 μM), 8.2 (L-Ala) (3 μM) and 10.1 (D-Val) (40 μM), which were those exerting a higher effect on the cell cycle.
# For immunofluorescence microscopy of the microtubule network, 10^6 cells were plated on cover glass and incubated with the different drugs. Cells were then fixed in 3.7% formaldehyde (in PBS pH 7.4) for 20 min at room temperature and permeabilized with PBS-Triton X-100 0.5% for 10 min at room temperature. Direct immunostaining was carried out for 2 h at room temperature with a primary FITC-conjugated anti-α-tubulin antibody (dilution 1:400 in PBS-BSA 1% from a 1 mg/mL solution; monoclonal antibody, clone DM1A; Sigma-Aldrich, Darmstadt, Germany.). Next, cells were incubated for 45 min at room temperature in darkness with secondary Alexa Fluor 488-conjugated antibodies (dilution 1:200 each from 1.5 mg/mL; Molecular Probe, France). Then, cells were washed in PBS and cover glasses were mounted with a drop of ProLong® antifade solution (Invitrogen). The cytoskeleton was imaged by a confocal laser scanning microscope (CLSM) Leica SP5 with a Leica inverted microscope, equipped with a Plan-Apochromat 63× oil immersion objective (NA = 1.4). Each image was recorded with the CLSM’s spectral mode selecting specific domains of the emission spectrum. The FITC fluorophore was excited at 488 nm with an argon laser, and its fluorescence emission was collected between 496 nm and 535 nm.
# [3] = test system: MCF-7 (breast adenocarcinoma); assay: Inhibition of cell proliferation (MTT), MCF-7; format: cell-based, human; conditions: Homo sapiens, 48 h of treatment (footnote), average ±SD of three experiments
# [4] = test system: A-549 cells; assay: Cell cycle distribution by flow cytometry; format: cell-based, human; conditions: A-549, 24 h; for cells accumulated in the G2/M phase: concentration per compound as in Tables 6 and 7, control 14%
# Outline: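 A-549 cells were harvested, fixed in cold 70% ethanol (30 min, −20 °C), then stained with 50 µg/mL propidium iodide plus 100 µg/mL RNase A in PBS for 20 min at room temperature in the dark. Flow cytometry used 488 nm excitation and 620 nm emission, giving the percentage of cells in G2/M.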
# [5] = test system: HEK-293 (human embryonic kidney cells); assay: Inhibition of cell proliferation (MTT), nontumor HEK-293; format: cell-based; conditions: Homo sapiens, 48 h of treatment (footnote), average ±SD of three experiments
# [6] = test system: A-549 (human pulmonary adenocarcinoma); assay: Inhibition of cell proliferation (MTT), A-549; format: cell-based; conditions: 48 h of treatment (footnote), average ±SD of three experiments
# Outline: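 Antiproliferative activity against A-549 human pulmonary adenocarcinoma cells was measured by MTT assay. Cells were seeded at 25,000/mL in 96-well plates, cultured 24 h, then exposed to compounds at various concentrations. MTT (20 µL, 5 mg·mL^−1) was added for 2 h at 37 °C, formazan dissolved in 200 µL DMSO, and absorbance read at 540 nm. IC50 values came graphically from three independent experiments.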
# [7] = test system: hTERT gene; assay: hTERT gene expression by RT-qPCR in HT-29 cells; format: cell-based, human; conditions: Homo sapiens, HT-29, 48 h, 7 nM, control 100
# Protocol: (§1) The effect on the expression of VEGF, hTERT and c-Myc genes has been studied for CA-4 and its derivatives that show selectivity indexes higher than 0.9 on the HT-29 cell line. The studied derivatives, together with the concentrations to which they have been tested, are CA-4 (15 μM); 4.1 (Gly, 5 μM); 4.5 (L-Pro, 25 μM); 4.9 (L-Met, 25 μM); 6.2 (D-Leu, 25 μM); 6.3 (D-Phe, 25 μM); 6.4 (D-Pro, 25 μM) and 6.5 (D-Ser, 10 μM). The expression of the genes was determined by RT-qPCR methodology, as described in the Materials and Methods section.
# (§2) As regards AmCA-4 derivatives, the effect on the expression of the VEGF, hTERT and c-Myc genes has been studied on those that show IC50 in the low nanomolar range on the HT-29 cell line and/or on compounds whose selectivity indexes with respect to this cell line are higher than 1. The studied compounds, together with the concentrations to which they have been tested, are: CA-4 (15 μM), AmCA-4 (15 nM), 7.1 (7 nM), 7.2 (1.5 nM), 7.3 (4 nM), 7.4 (15 nM), 7.5 (2 nM), 7.7 (7 nM), 7.8 (15 nM), 7.9 (30 nM), 8.1 (7 nM), 8.2 (3 nM), 8.3 (10 nM), 8.4 (1.5 nM), 8.5 (4 nM), 8.7 (7 nM), 8.8 (3 nM) and 8.9 (4 nM).
# (§3) HT-29 cells at 70–80% confluence were collected, and 1.5 × 10^5 cells were placed in a six-well plate in 1.5 mL of the medium. After 24 h, cells were incubated with the corresponding compounds for 48 h. Cells were collected, and the total cellular RNA from the HT-29 cells was isolated using an Ambion RNA Extraction Kit, according to the manufacturer’s instructions. The cDNA was synthesized by MMLV-RT with […] of extracted RNA and oligo(dT)15, according to the manufacturer’s instructions. Genes were amplified by a thermal cycler and StepOnePlus™ TaqMan® probes. TaqMan® Gene Expression Master Mix Fast, containing the appropriate buffer for the amplification conditions, dNTPs, thermostable DNA polymerase enzyme and a passive reference probe, was used. To amplify each of the genes, the predesigned primers sold by Life Technologies TaqMan® Gene Expression Assays Hs99999903-m1 (β-actin), Hs00900055-m1 (VEGF), Hs00972646-m1 (hTERT) and Hs00153408-m1 (c-Myc) were used.
# [8] = test system: VEGF gene; assay: VEGF gene expression by RT-qPCR in HT-29 cells; format: cell-based, human; conditions: Homo sapiens, HT-29, 48 h, 7 nM, control 100
# Protocol: as §1, §2, §3
# [9] = test system: purified tubulin; assay: Critical concentration (CrC) for the assembly of purified tubulin in GAB; format: biochemical; conditions: compound 27.5 μM, tubulin 25 μM, glycerol (GAB) and GTP assembly buffer; control 7.9 ± 1.2
# Protocol: The effect on the self-assembly of tubulin was determined by measuring the critical concentration (CrC).
# [10] = test system: tubulin; assay: In vitro tubulin polymerization by turbidimetry (It50); format: biochemical; conditions: turbidimetry at 350 nm, 37 °C; control 16.6 ± 1.0
# Protocol: Figure 3 also includes polymerization curves in the presence of CA-4, AmCA-4 and paclitaxel. This test was also performed using paclitaxel, a microtubule stabilizing agent, as a control for the complete formation of microtubules (see Figure 3).
# [11] = test system: c-Myc gene; assay: c-Myc gene expression by RT-qPCR in HT-29 cells; format: cell-based, human; conditions: Homo sapiens, HT-29, 48 h, 7 nM, control 100
# Protocol: as §1, §2, §3
# [12] = Homo sapiens, A549, 48 h, Table 1
# [13] = Homo sapiens, A549, 48 h, Table 2
Compound,"IC50 ([1]; HT-29, 48 h, Table 1) [µM]","Effect on the microtubule network ([2]; A-549, 24 h, 50 μM)","IC50 ([3]; MCF7, 48 h, Table 1) [µM]",cells accumulated in the G2/M phase [4],"IC50 ([5]; HEK293, 48 h, Table 1) [µM]","IC50 [6, 12] [µM]","IC50 ([1]; HT-29, 48 h, Table 2) [µM]",CrC (critical concentration) [9] [µM],It50 (time required to reach 50% of the polymerization) [10] [min],"IC50 ([3]; MCF7, 48 h, Table 2) [µM]","IC50 ([5]; HEK293, 48 h, Table 2) [µM]","IC50 [6, 13] [µM]",G0/G1 ([4]; 75 μM) [%],G2/M ([4]; 75 μM) [%],S ([4]; 75 μM) [%],other results
"CCOC(=O)COc1cc(/C=C\c2cc(OC)c(OC)c(OC)c2)ccc1OC [Compound 1, Ethyl (Z)-2-(2-methoxy-5-(3,4,5-trimethoxystyryl)phenoxy)acetate]",7 ± 4,produce disorganization in the mitotic spindle,8 ± 4,50–70%,3.6 ± 0.5,< 10,–,–,–,–,–,–,–,–,–,G0/G1 ([4]; 50 μM): 23 ± 5%; G2/M ([4]; 50 μM): 55 ± 8%; S ([4]; 50 μM): 22 ± 4%; IC50 ([6]; Table 1): 9 ± 1 µM
COc1ccc(/C=C\c2cc(OC)c(OC)c(OC)c2)cc1NC(=O)[C@@H](NC(=O)OCC1c2ccccc2-c2ccccc21)C(C)O (some centres unmarked) [Compound 7.7],–,–,–,–,–,–,0.009 ± 0.003,12.0 ± 0.3,19.2 ± 0.3,0.025 ± 0.012,0.013 ± 0.002,0.422 ± 0.008,–,–,–,mrna remaining at 0.007 µM [7]: < 70%; mrna remaining at 0.007 µM [8]: 37%; mrna remaining at 0.007 µM [11]: 56%
COC(=O)[C@H](Cc1ccc(O)cc1)NC(=O)COc1cc(/C=C\c2cc(OC)c(OC)c(OC)c2)ccc1OC [Compound 3.8],16 ± 5,–,12 ± 4,50–70%,10 ± 2,18 ± 1,–,–,–,–,–,–,17 ± 2,65 ± 1,18 ± 1,"Effect on the microtubule network ([2]; A-549, 24 h, 75 μM): produce disorganization in the mitotic spindle"
COC(=O)[C@@H](NC(=O)COc1cc(/C=C\c2cc(OC)c(OC)c(OC)c2)ccc1OC)C(C)O (some centres unmarked) [Compound 3.7],18 ± 7,–,12 ± 4,50–70%,14 ± 2,19 ± 1,–,10 ± 3,–,–,–,–,25 ± 5,57 ± 6,18 ± 1,"Effect on the microtubule network ([2]; A-549, 24 h, 75 μM): produce disorganization in the mitotic spindle"
COc1ccc(/C=C\c2cc(OC)c(OC)c(OC)c2)cc1OCC(=O)N[C@@H](CC(C)C)C(=O)O [Compound 4.3],15 ± 5,produce disorganization in the mitotic spindle,16 ± 6,50–70%,9 ± 2,14 ± 2,–,8 ± 3,–,–,–,–,22 ± 6,63 ± 5,15 ± 2,–
COc1ccc(/C=C\c2cc(OC)c(OC)c(OC)c2)cc1OCC(=O)N[C@@H](Cc1ccccc1)C(=O)O [Compound 4.4],–,produce disorganization in the mitotic spindle,–,–,–,100 ± 20,–,11.4 ± 0.7,–,–,–,–,–,–,–,"IC50 ([1]; HT-29, Table 1): 54 ± 9 µM; IC50 ([3]; MCF7, Table 1): 45 ± 4 µM; IC50 ([5]; HEK293, Table 1): 47 ± 3 µM"
COc1ccc(/C=C\c2cc(OC)c(OC)c(OC)c2)cc1NC(=O)[C@H](N)C(C)C [Compound 10.1],–,–,–,–,–,–,4.8 ± 0.6,12.8 ± 0.3,17.1 ± 1.3,4.7 ± 0.7,2.4 ± 0.3,9.9 ± 1.3,–,–,–,"Effect on the microtubule network ([2]; A-549, 0.5 μM): much less active; Effect on the microtubule network ([2]; A-549, 40 μM): almost total depolymerization of the microtubule network; G0/G1 ([4]; 40 µM): 26 ± 2%; G2/M ([4]; 40 µM): 60 ± 1%; S ([4]; 40 µM): 14 ± 1%"
COc1ccc(/C=C\c2cc(OC)c(OC)c(OC)c2)cc1NC(=O)[C@H]1CCCN1C(=O)OCC1c2ccccc2-c2ccccc21 [Compound 9.4],–,–,–,–,–,–,5.3 ± 0.3,11.4 ± 0.2,16.5 ± 0.3,5.3 ± 1.1,3.1 ± 1.1,12.8 ± 0.8,–,–,–,–
